In the NIST ThermoML archive (doi:10.1016/j.jct.2012.11.032):
± gives the expanded uncertainty stated by the source.

Assay: xn = mol fraction of the nth substance listed
Details: 101 kPa, Liquid; for mass density: Vibrating tube method; for speed of sound: Sing-around technique in a fixed-path interferometer

CCCCCCCC[n+]1ccn(C)c1.[Cl-] [1-methyl-3-octylimidazolium chloride] + O
Details	mass density, 298 K [kg/m3]	mass density, 303 K [kg/m3]	speed of sound, 303 K [m/s]	speed of sound, 308 K [m/s]
x1 = 0.000276	997.161 ± 0.1	995.767 ± 0.1	1511.7 ± 1.2	1522.2 ± 1.2
x1 = 0.000495	997.221 ± 0.1	995.808 ± 0.1	1513.5 ± 1.2	1523.8 ± 1.2
x1 = 0.000781	997.313 ± 0.1	995.896 ± 0.1	1515.8 ± 1.2	1526 ± 1.2
x1 = 0.00102	997.386 ± 0.1	995.954 ± 0.1	1517.8 ± 1.2	1527.8 ± 1.2
x1 = 0.0013	997.479 ± 0.1	996.029 ± 0.1	1520 ± 1.2	1529.8 ± 1.2
x1 = 0.001503	997.527 ± 0.1	996.067 ± 0.1	1521.6 ± 1.2	1531.3 ± 1.2
x1 = 0.001892	997.639 ± 0.1	996.169 ± 0.1	1524.7 ± 1.2	1534.1 ± 1.2
x1 = 0.002073	997.696 ± 0.1	996.211 ± 0.1	1526.1 ± 1.2	1535.4 ± 1.2
x1 = 0.002376	997.786 ± 0.1	996.287 ± 0.1	1528.3 ± 1.2	1537.4 ± 1.2
x1 = 0.00261	997.846 ± 0.1	996.341 ± 0.1	1530.2 ± 1.2	1539.1 ± 1.2
x1 = 0.002774	997.889 ± 0.1	996.377 ± 0.1	1531.2 ± 1.2	1540.1 ± 1.2
x1 = 0.003111	997.987 ± 0.1	996.455 ± 0.1	1533.7 ± 1.2	–
x1 = 0.003716	998.157 ± 0.1	996.597 ± 0.1	1537.7 ± 1.2	–
x1 = 0.003899	998.198 ± 0.1	996.633 ± 0.1	1538.8 ± 1.2	–
x1 = 0.004079	998.254 ± 0.1	996.675 ± 0.1	1540 ± 1.2	–
x1 = 0.004181	998.28 ± 0.1	996.696 ± 0.1	1540.7 ± 1.2	–
x1 = 0.004462	998.349 ± 0.1	996.755 ± 0.1	1542.4 ± 1.2	–
x1 = 0.004601	998.382 ± 0.1	996.78 ± 0.1	1543.2 ± 1.2	–
x1 = 0.004981	998.469 ± 0.1	996.85 ± 0.1	1545.2 ± 1.2	–
x1 = 0.005198	998.52 ± 0.1	996.89 ± 0.1	1546.2 ± 1.2	–
x1 = 0.005607	998.619 ± 0.1	996.962 ± 0.1	1548.2 ± 1.2	–
x1 = 0.005782	998.649 ± 0.1	996.986 ± 0.1	1549 ± 1.2	–
